We go through 2 compounds from PMC3789257 (Journal of the American Chemical Society, 2012).

In one assay the target is T-p53-Y220C (Homo sapiens, UniProt P04637, M133L/N239Y/N268D/V203A/Y220C). In words: 1H/15N-HSQC NMR titration. The conditions noted are these: 20 °C, 75 μM protein. It counts as binding.
A further assay addresses T-p53C-Y220C (Homo sapiens, UniProt P04637, M133L/N239Y/N268D/V203A/Y220C). In words: Isothermal titration calorimetry. The class given is binding.
Assay [1] addresses p53 mutant Y220C. The conditions noted are these: binding to the mutation-induced crevice; cited from earlier work.
Assay [2] has as its system p53 mutant Y220C. The conditions noted are these: in vitro; cited from earlier work.

Sequence of T-p53-Y220C (P04637 102-292 limits assumed, stated change not applied): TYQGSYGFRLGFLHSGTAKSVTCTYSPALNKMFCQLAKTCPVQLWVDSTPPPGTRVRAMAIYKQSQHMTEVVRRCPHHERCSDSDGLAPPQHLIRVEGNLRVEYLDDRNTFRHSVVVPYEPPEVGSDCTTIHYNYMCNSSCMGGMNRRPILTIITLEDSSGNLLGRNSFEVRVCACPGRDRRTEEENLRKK
Sequence of T-p53C-Y220C (P04637 102-292 limits assumed, stated change not applied): as the sequence (P04637 102-292 limits assumed, stated change not applied) above

As to `CN1CCC(N(C)Cc2cc(I)cc(I)c2O)CC1` [compound 3, 2,4-diiodo-6-((methyl(1-methylpiperidin-4-yl)amino)methyl)phenol], the Kd (usually the constant that tells how readily two partners part at equilibrium) at T-p53-Y220C was found to be 184 ± 23 µM; at T-p53C-Y220C, 225 µM.
With `CCn1c2ccccc2c2cc(CNC)ccc21` [PhiKan083], at p53 mutant Y220C [1], the Kd is 150 µM. Moreover, the “effect on melting temperature of the protein” value with p53 mutant Y220C [2] was “raises the melting temperature”.
